Data from US12391646B2, “Using adiponectin receptor agonists to treat inflammation and bone diseases in diabetes” (Trustees of Tufts College, priority 2020, dated 2025).

Test system: RAW 264.7 cells in high glucose medium
Experiment: Osteoclastogenesis and autophagy of RANKL-treated RAW 264.7 cells in high glucose medium
Assay type: cell-based
Conditions: for RANKL-induced mRNA expression of Cathepsin K and TRAP: high glucose 25 mM, AdipoRon 20 μM; for LC3 mRNA, LC3II protein and LC3 puncta: high glucose medium with RANKL
Description: FIG. 20 RAW 264.7 cells were treated with RANKL (100 ng/ml) with or without AdipoRon ([…]) or AdipoAI (5 μM) in low (5 mmol/l) glucose, 20 mmol/l D-mannitol or high (25 mmol/l) glucose medium. qRT-PCR analysis of cathepsin K (A), TRAP (B) and microtubule associated protein 1 light chain 3 (LC3) (C), and mRNA expression were calculated (n≥3). (D) Western blot analysis of LC3A/B protein levels normalized to β-actin. (E) The mean of protein/β-actin ratios normalized to 1.0 (RANKL-AdipoRon-AdipoAI-H group) quantified by densitometry. (F) Autophagosome images obtained with laser confocal microscopy after the RAW 264.7 cells were transfected with a GFP-LC3 plasmid and treated with RANKL and AdipoRon or AdipoAI (scale bar=50 μm). Data are shown as mean±SD. *, P<0.05. **P<0.01. ***P<0.001.
FIG. 21 Autophagy inhibitor reverses AdipoAI-inhibited osteoclastogenesis in high glucose medium. RAW 264.7 cells were treated with RANKL (100 ng/ml) in 2 days and with or without AdipoAI (5 μM) for 24 hours followed by 3-methyladenine (3-MA, 2.5 mM) treatment for another 24 hours in high glucose medium. qRT-PCR analysis of cathepsin K (A), TRAP (B) and LC3 (C) mRNA expression were calculated (n≥3). (D) Western blot analysis of LC3A/B protein levels normalized to β-actin. (E) The mean of protein/β-actin ratios normalized to 1.0 (3-MA-, RANKL-, AdipoAI-group) quantified by densitometry. Data are shown as mean±SD. *, P<0.05. **P<0.01. ***P<0.001.
FIG. 22 AdipoAI-induced autophagy of osteoclasts in high glucose medium via AKT1/mTOR signaling pathway. RAW 264.7 cells were induced with RANKL for 2 days and then treated with or without (5 μM) additional 24 hours after serum starvation for 4 hours. Then, the cells were treated with RANKL, AdipoAI or SC79 (5 μM), an AKT activator, for another 24 hours in high glucose medium. qRT-PCR analysis of mRNA expression of cathepsin K (A), TRAP (B) and LC3 (C) were calculated (n≥3). (D) Representative images show the protein expression levels of AKT, p-AKT, AKT1, p-AKT1, mTOR, p-mTOR, and LC3A/B in osteoclasts. Quantitative analysis of bands is shown in (E-K) (n≥3). Data are shown as mean±SD. *, P<0.05. **P<0.01. ***P<0.001. R: RANKL. A, AI: AdipoAI. SC5: SC79 (5 μM).
RAW 264.7 cells (ATCC, Manassas, VA, USA) were cultured and passaged in DMEM supplemented with 10% (v/v) FBS (Invitrogen, Grand Island, NY, USA) and 1% Penicillin-Streptomycin (Gibco, Gaithersburg, MD, USA). For the induction of osteoclastogenesis, RAW 264.7 cells were cultured 24 in α-MEM supplemented with 10% FBS and 1% Penicillin-Streptomycin in the presence of 100 ng/ml RANKL (Peprotech, Rocky Hill, NJ, USA) for 2 days, and subsequently treated or not with AdipoRon or AdipoAI for another 2 days changing cell culture medium every 2 days. After a total of […] of culture, morphologic examination was performed, as was mRNA and protein expression. To simulate high glucose environment in vitro, α-MEM was supplemented with D-glucose to 25 mmol/l (high glucose) or 5 mmol/l (physiological glucose). 20 mmol/l D-mannitol served as an osmotic control.
Total RNA was isolated from cell cultures and gingival soft tissues using TriZol reagent (Life Technologies, Carlsbad, CA, USA) according to the manufacturer's instructions^24. Reverse transcription was performed using the PrimeScript RT Master Mix (Takara Bio, Otsu, Japan) and real-time-qPCR analyses were performed using SYBR-Green Real-Time PCR Master Mix (Takara Bio, Otsu, Japan) as described earlier^27.
Total cellular extracts were prepared using RIPA Lysis and Extraction Buffer containing three Protease Inhibitors (Santa Cruz, Dallas, TX, USA). Western blot analyses were performed as previously described 24. Antibodies for β-actin (1:2000) and GAPDH (1:5000), LC3A/B (1:1000), AKT1 (1:1000), p-AKT1 (1:1000), AKT (1:1000), p-AKT (1:1000), mTOR (1:1000), p-mTOR (1:1000) were purchased from Abcam and Cell Signaling Technology, respectively. SC79, an AKT activator was purchased from Sigma Aldrich. […]

[1] = AdipoAI 5 μM, RANKL, high glucose medium

Compound	RANKL-induced mRNA expression of Cathepsin K and TRAP (AdipoAI 5 μM)	LC3 mRNA, LC3II protein and LC3 puncta	expression of AKT [1]	expression of LC3II [1]	reduction of phosphorylation of AKT [1] [%]	reduction of phosphorylation of AKT1 [1] [%]	reduction of phosphorylation of mTOR [1] [%]
O=C(COc1ccc(C(=O)c2ccccc2)cc1)NC1CCN(Cc2ccccc2)CC1 [AdipoRon, reference compound]	decreased the RANKL-induced mRNA expression of osteoclastogenesis markers	increased the mRNA expression of LC3, protein expression of LC3II and LC3 puncta	–	–	–	–	–
COc1ccc(CN2CCC(NC(=O)COc3ccc(C(=O)c4ccc(Cl)cc4)cc3)CC2)cc1 [Compound 3]	decreased the RANKL-induced mRNA expression of osteoclastogenesis markers	increased the mRNA expression of LC3, protein expression of LC3II and LC3 puncta	inhibits the expression of AKT	promotes the expression of LC3II	21	40	25
